Where “and” joins values, the source holds several entries; their conditions need not be identical. Equal entries are not always repeated. Toxic doses and inconclusive results are not listed. How the source made its calls: active means survival T/C of 150% or more; inactive means T/C below 125% in these data.
Tested on: P388 leukemia ip, CD2F1 mice, survival T/C
Assay: NCI In Vivo Anticancer Drug Screen. Data for tumor model P388 Leukemia (intraperitoneal) in CD2F1 (CDF1) mice
Conditions: endpoint: median survival time, higher = longer survival
Method in brief: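 Mice carrying the transplanted tumor received test compound or vehicle. Survival was recorded in each group, and the value is the treated-group measurement divided by that of the vehicle-treated control group.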

[1] = dose: 50.0 mg/kg/injection, schedule: Q01DX009 (ip), vehicle: saline
[2] = dose: 100.0 mg/kg/injection, schedule: Q01DX001 (ip), vehicle: Klucel (hydroxypropylcellulose) (HPC)
[3] = dose: 100.0 mg/kg/injection, schedule: Q01DX009 (ip), vehicle: saline
[4] = dose: 200.0 mg/kg/injection, schedule: Q01DX001 (ip), vehicle: Klucel (hydroxypropylcellulose) (HPC)
[5] = dose: 200.0 mg/kg/injection, schedule: Q01DX009 (ip), vehicle: saline
[6] = dose: 400.0 mg/kg/injection, schedule: Q01DX001 (ip), vehicle: Klucel (hydroxypropylcellulose) (HPC)
[7] = dose: 400.0 mg/kg/injection, schedule: Q01DX009 (ip), vehicle: saline
[8] = dose: 100.0 mg/kg/injection, schedule: Q01DX009 (ip), vehicle: saline with Tween-80
[9] = dose: 200.0 mg/kg/injection, schedule: Q01DX009 (ip), vehicle: saline with Tween-80
[10] = dose: 400.0 mg/kg/injection, schedule: Q01DX009 (ip), vehicle: saline with Tween-80
[11] = dose: 50.0 mg/kg/injection, schedule: Q01DX005 (ip), vehicle: saline with Tween-80
[12] = dose: 100.0 mg/kg/injection, schedule: Q01DX005 (ip), vehicle: saline with Tween-80
[13] = dose: 200.0 mg/kg/injection, schedule: Q01DX005 (ip), vehicle: saline with Tween-80

Measured: T/C

Cc1ccc(S(=O)(=O)NC(=O)ON2CCCCC2)cc1
inactive: dose: 50.0 mg/kg/injection, schedule: Q01DX009 (ip), vehicle: saline + Tween-80 + alcohol 95 % of control | dose: 100.0 mg/kg/injection, schedule: Q01DX009 (ip), vehicle: saline + Tween-80 + alcohol 95 % of control | dose: 200.0 mg/kg/injection, schedule: Q01DX009 (ip), vehicle: saline + Tween-80 + alcohol 92 % of control

CC(=O)OC1C(=O)C2C(CC=C3CC(O)CC(O)C32C)C2CCC(C(C)C3CC(C)C(C)(C)O3)C12C (stereo not drawn)
inactive: [1] 97 % of control | [2] 100 % of control | [3] 101 % of control | [4] 97 % of control | [5] 94 % of control | [6] 96 % of control

O=[N+]([O-])c1ccc(-[n+]2ccc3ccccc3c2)c([N+](=O)[O-])c1
inactive: dose: 12.5 mg/kg/injection, schedule: Q01DX005 (ip), vehicle: saline 110 % of control | dose: 25.0 mg/kg/injection, schedule: Q01DX005 (ip), vehicle: saline 106 % of control | dose: 50.0 mg/kg/injection, schedule: Q01DX005 (ip), vehicle: saline 104 % of control and 111 % of control

O=C(Cn1ccnc1[N+](=O)[O-])N(CCO)CCO
inactive: dose: 6.25 mg/kg/injection, schedule: Q01DX009 (ip), vehicle: saline 102 % of control | dose: 12.5 mg/kg/injection, schedule: Q01DX009 (ip), vehicle: saline 111 % of control | dose: 25.0 mg/kg/injection, schedule: Q01DX009 (ip), vehicle: saline 111 % of control | [1] 105 % of control | [3] 105 % of control | [5] 102 % of control | [7] 105 % of control | dose: 800.0 mg/kg/injection, schedule: Q01DX009 (ip), vehicle: saline 102 % of control

CC1(C)CC(N2CCN(CCO)CC2)=CC(=S)N1
inactive: dose: 50.0 mg/kg/injection, schedule: Q01DX005 (ip), vehicle: Klucel (hydroxypropylcellulose) (HPC) 103 % of control | dose: 100.0 mg/kg/injection, schedule: Q01DX005 (ip), vehicle: Klucel (hydroxypropylcellulose) (HPC) 93 % of control | dose: 200.0 mg/kg/injection, schedule: Q01DX005 (ip), vehicle: Klucel (hydroxypropylcellulose) (HPC) 104 % of control

CCC(C)C[c-]1[c-][c-][c-][c-]1.[Cl][Zr][Cl].[c-]1[c-][c-][cH-][c-]1 (stereo not drawn)
inactive: dose: 6.25 mg/kg/injection, schedule: Q04DX002 (ip), vehicle: saline 102 % of control | dose: 12.5 mg/kg/injection, schedule: Q01DX001 (ip), vehicle: saline with Tween-80 100 % of control | dose: 12.5 mg/kg/injection, schedule: Q04DX002 (ip), vehicle: saline 106 % of control | dose: 25.0 mg/kg/injection, schedule: Q01DX001 (ip), vehicle: saline with Tween-80 98 % of control | dose: 25.0 mg/kg/injection, schedule: Q04DX002 (ip), vehicle: saline 100 % of control | dose: 50.0 mg/kg/injection, schedule: Q01DX001 (ip), vehicle: saline with Tween-80 97 % of control

NS(=O)(=O)c1ccc(N=Cc2ccccc2)cc1
inactive: [8] 103 % of control | [9] 100 % of control | [10] 98 % of control

CCC(=O)OC(C)COc1ccc(C(C)(C)C)cc1 (stereo not drawn)
inactive: [8] 107 % of control | [9] 114 % of control | [10] 117 % of control

CCSc1nsc(NC(C)=O)n1
inactive: [2] 104 % of control | [4] 96 % of control | [6] 102 % of control

Nc1cc(-c2ccccc2)nn1-c1nnc(-c2ccccc2)c(-c2ccccc2)n1
inactive: [11] 95 % of control | [12] 100 % of control | [13] 95 % of control

CCCCCC1(O)OC(=O)C(C)=C1C (stereo not drawn)
inactive: dose: 12.5 mg/kg/injection, schedule: Q04DX003 (ip), vehicle: saline 100 % of control | dose: 25.0 mg/kg/injection, schedule: Q04DX003 (ip), vehicle: saline 100 % of control | dose: 50.0 mg/kg/injection, schedule: Q04DX003 (ip), vehicle: saline 122 % of control

Cc1ccc(S(=O)(=O)N2C(=N)C(=S)N(C)C2=O)cc1
inactive: dose: 60.0 mg/kg/injection, schedule: Q01DX005 (ip), vehicle: Klucel + Tween-80 101 % of control | dose: 120.0 mg/kg/injection, schedule: Q01DX005 (ip), vehicle: Klucel + Tween-80 111 % of control | dose: 240.0 mg/kg/injection, schedule: Q01DX005 (ip), vehicle: Klucel + Tween-80 114 % of control

C[C@@]1(O)CC[C@@]23OC(=O)CC2C[C@@H]1O3 (stereo partly drawn)
inactive: dose: 100.0 mg/kg/injection, schedule: Q01DX001 (ip), vehicle: saline 102 % of control | dose: 200.0 mg/kg/injection, schedule: Q01DX001 (ip), vehicle: saline 98 % of control | dose: 400.0 mg/kg/injection, schedule: Q01DX001 (ip), vehicle: saline 104 % of control

COc1cc2c(OC)c(c1)CCc1cc(OC)c(cc1OC)CC2
inactive: [11] 97 % of control | [12] 97 % of control | [13] 94 % of control

COc1ccc2c(c1)CCc1cc(OC)ccc1/[N+]([O-])=[N+]\2[O-]
inactive: dose: 60.0 mg/kg/injection, schedule: Q01DX005 (ip), vehicle: saline with Tween-80 93 % of control | dose: 120.0 mg/kg/injection, schedule: Q01DX005 (ip), vehicle: saline with Tween-80 93 % of control | dose: 240.0 mg/kg/injection, schedule: Q01DX005 (ip), vehicle: saline with Tween-80 101 % of control

NC(=S)N/N=C\c1nccc2c(C(F)(F)F)cccc12
inactive: dose: 1.5 mg/kg/injection, schedule: Q04DX003 (ip), vehicle: saline with Tween-80 91 % of control | dose: 3.0 mg/kg/injection, schedule: Q04DX003 (ip), vehicle: saline with Tween-80 95 % of control | dose: 6.0 mg/kg/injection, schedule: Q04DX003 (ip), vehicle: saline with Tween-80 99 % of control | dose: 12.0 mg/kg/injection, schedule: Q04DX003 (ip), vehicle: saline with Tween-80 91 % of control

CCCC(=O)OC1C=C2N3C(=O)C4CC56C(=CC(OC(C)=O)C7OC75)N4C(=O)C3CC26C2OC12 (stereo not drawn)
inactive: dose: 0.13 mg/kg/injection, schedule: Q01DX005 (ip), vehicle: Klucel (hydroxypropylcellulose) (HPC) 100 % of control | dose: 0.25 mg/kg/injection, schedule: Q01DX005 (ip), vehicle: Klucel (hydroxypropylcellulose) (HPC) 100 % of control | dose: 0.5 mg/kg/injection, schedule: Q01DX005 (ip), vehicle: Klucel (hydroxypropylcellulose) (HPC) 100 % of control | dose: 1.0 mg/kg/injection, schedule: Q01DX005 (ip), vehicle: Klucel (hydroxypropylcellulose) (HPC) 107 % of control | dose: 2.0 mg/kg/injection, schedule: Q01DX005 (ip), vehicle: Klucel (hydroxypropylcellulose) (HPC) 99 % of control and 103 % of control | dose: 4.0 mg/kg/injection, schedule: Q01DX005 (ip), vehicle: Klucel (hydroxypropylcellulose) (HPC) 96 % of control

OC1C(O)C(O)C(O)C(O)C1O (stereo not drawn)
inactive: [1] 97 % of control | [3] 96 % of control | [5] 100 % of control | [7] 96 % of control

OCC1OC(n2cnc3c2NC=NC[C@H]3O)C(O)C1O (stereo partly drawn)
inactive: dose: 0.1 mg/kg/injection, schedule: Q01DX009 (ip), vehicle: saline 106 % of control | dose: 0.2 mg/kg/injection, schedule: Q01DX005 (ip), vehicle: saline 104 % of control | dose: 0.2 mg/kg/injection, schedule: Q01DX009 (ip), vehicle: saline 111 % of control | dose: 0.4 mg/kg/injection, schedule: Q01DX005 (ip), vehicle: saline 107 % of control | dose: 0.4 mg/kg/injection, schedule: Q01DX009 (ip), vehicle: saline 103 % of control | dose: 0.78 mg/kg/injection, schedule: Q01DX005 (ip), vehicle: saline 99 % of control | dose: 0.8 mg/kg/injection, schedule: Q01DX005 (ip), vehicle: saline 100 % of control | dose: 1.56 mg/kg/injection, schedule: Q01DX005 (ip), vehicle: saline 97 % of control

O=C(NCC(CC(NC(=O)c1ccccc1)C(=O)O)NC(=O)c1ccccc1)c1ccccc1 (stereo not drawn)
inactive: dose: 12.5 mg/kg/injection, schedule: Q01DX009 (ip), vehicle: Klucel (hydroxypropylcellulose) (HPC) 89 % of control | dose: 25.0 mg/kg/injection, schedule: Q01DX009 (ip), vehicle: Klucel (hydroxypropylcellulose) (HPC) 91 % of control | dose: 50.0 mg/kg/injection, schedule: Q01DX009 (ip), vehicle: Klucel (hydroxypropylcellulose) (HPC) 93 % of control | dose: 100.0 mg/kg/injection, schedule: Q01DX009 (ip), vehicle: Klucel (hydroxypropylcellulose) (HPC) 89 % of control | dose: 200.0 mg/kg/injection, schedule: Q01DX009 (ip), vehicle: Klucel (hydroxypropylcellulose) (HPC) 90 % of control
